Results: ChEMBL document CHEMBL5465560, “Selectivity Literature for EUbOPEN Chemogenomic Library” (2024)

Assays:
[1] = Selectivity interaction (KinomeScan (DiscoverX)) EUB0000595a PKNB; settings: at 10 µM
[2] = biological target: T1, Serine/threonine-protein kinase STK11 (Homo sapiens) (UniProt Q15831); assay: Selectivity interaction (KinomeScan (DiscoverX)) EUB0000045b STK11
T1 sequence (whole entry): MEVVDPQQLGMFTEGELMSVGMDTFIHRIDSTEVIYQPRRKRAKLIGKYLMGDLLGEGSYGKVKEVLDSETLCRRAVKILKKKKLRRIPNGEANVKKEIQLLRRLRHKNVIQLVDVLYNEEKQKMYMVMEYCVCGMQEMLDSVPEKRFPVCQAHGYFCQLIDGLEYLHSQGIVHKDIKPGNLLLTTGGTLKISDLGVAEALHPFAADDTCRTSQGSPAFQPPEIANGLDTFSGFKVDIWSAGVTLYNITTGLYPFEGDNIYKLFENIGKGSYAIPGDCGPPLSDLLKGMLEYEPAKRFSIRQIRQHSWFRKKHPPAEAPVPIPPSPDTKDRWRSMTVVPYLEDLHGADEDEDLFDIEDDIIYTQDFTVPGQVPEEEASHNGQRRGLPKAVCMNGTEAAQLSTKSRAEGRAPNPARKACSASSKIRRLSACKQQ

[3] = test system: Receptor-type tyrosine-protein kinase FLT3 (Homo sapiens), P36888 [UNDEFINED MUTATION]; settings: at 10 µM
Sequence of Receptor-type tyrosine-protein kinase FLT3 (Homo sapiens), P36888 [UNDEFINED MUTATION] (P36888 whole entry, looked up, change not shown): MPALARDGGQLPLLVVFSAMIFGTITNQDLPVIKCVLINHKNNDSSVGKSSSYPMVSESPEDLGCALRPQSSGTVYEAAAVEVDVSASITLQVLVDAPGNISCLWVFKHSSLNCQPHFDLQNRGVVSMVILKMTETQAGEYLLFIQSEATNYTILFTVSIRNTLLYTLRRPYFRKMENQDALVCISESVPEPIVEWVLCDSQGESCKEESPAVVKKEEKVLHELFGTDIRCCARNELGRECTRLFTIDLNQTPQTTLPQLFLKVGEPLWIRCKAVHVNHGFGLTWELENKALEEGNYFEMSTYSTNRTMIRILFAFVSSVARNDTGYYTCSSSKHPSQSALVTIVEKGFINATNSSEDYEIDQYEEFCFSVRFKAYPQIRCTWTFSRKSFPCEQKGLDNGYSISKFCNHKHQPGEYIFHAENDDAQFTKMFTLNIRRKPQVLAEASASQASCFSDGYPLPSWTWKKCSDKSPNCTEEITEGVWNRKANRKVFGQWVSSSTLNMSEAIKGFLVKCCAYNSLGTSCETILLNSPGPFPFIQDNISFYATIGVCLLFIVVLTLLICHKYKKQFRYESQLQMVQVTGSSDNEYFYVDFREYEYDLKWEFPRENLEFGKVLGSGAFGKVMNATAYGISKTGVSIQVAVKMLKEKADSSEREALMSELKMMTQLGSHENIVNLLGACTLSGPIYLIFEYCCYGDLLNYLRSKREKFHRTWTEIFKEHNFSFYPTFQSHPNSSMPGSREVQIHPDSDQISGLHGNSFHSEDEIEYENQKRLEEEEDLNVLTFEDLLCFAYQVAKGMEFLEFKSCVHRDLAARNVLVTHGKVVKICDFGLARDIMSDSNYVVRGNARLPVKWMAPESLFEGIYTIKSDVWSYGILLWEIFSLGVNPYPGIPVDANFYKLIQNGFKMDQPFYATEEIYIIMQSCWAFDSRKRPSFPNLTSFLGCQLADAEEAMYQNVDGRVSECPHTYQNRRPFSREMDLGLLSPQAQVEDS

Aurora kinase B = Aurora kinase B (Homo sapiens, UniProt Q96GD4); assay: Selectivity interaction (ActivX KiNativ screen (kinase selectivity in THP-1 cell lysates)) EUB0000639a AURKB; assay type: subcellular; settings: lysate
Sequence of Aurora kinase B (Q96GD4 whole entry): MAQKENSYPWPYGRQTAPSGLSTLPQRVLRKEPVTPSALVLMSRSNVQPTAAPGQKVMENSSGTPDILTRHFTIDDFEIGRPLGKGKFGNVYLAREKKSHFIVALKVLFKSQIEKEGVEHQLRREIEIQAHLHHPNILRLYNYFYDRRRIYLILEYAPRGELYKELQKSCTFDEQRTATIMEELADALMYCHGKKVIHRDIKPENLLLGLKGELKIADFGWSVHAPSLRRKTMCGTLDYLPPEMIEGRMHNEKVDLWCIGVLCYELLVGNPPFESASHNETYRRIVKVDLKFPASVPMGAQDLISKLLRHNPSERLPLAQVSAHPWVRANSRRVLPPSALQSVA

[4] = biological target: T2, Serine/threonine-protein kinase Nek1 (Homo sapiens) (UniProt Q96PY6); assay: Selectivity interaction (Kinase panel (Invitrogen)) EUB0000639a NEK1; settings: at 200 nM
T2 sequence (whole entry): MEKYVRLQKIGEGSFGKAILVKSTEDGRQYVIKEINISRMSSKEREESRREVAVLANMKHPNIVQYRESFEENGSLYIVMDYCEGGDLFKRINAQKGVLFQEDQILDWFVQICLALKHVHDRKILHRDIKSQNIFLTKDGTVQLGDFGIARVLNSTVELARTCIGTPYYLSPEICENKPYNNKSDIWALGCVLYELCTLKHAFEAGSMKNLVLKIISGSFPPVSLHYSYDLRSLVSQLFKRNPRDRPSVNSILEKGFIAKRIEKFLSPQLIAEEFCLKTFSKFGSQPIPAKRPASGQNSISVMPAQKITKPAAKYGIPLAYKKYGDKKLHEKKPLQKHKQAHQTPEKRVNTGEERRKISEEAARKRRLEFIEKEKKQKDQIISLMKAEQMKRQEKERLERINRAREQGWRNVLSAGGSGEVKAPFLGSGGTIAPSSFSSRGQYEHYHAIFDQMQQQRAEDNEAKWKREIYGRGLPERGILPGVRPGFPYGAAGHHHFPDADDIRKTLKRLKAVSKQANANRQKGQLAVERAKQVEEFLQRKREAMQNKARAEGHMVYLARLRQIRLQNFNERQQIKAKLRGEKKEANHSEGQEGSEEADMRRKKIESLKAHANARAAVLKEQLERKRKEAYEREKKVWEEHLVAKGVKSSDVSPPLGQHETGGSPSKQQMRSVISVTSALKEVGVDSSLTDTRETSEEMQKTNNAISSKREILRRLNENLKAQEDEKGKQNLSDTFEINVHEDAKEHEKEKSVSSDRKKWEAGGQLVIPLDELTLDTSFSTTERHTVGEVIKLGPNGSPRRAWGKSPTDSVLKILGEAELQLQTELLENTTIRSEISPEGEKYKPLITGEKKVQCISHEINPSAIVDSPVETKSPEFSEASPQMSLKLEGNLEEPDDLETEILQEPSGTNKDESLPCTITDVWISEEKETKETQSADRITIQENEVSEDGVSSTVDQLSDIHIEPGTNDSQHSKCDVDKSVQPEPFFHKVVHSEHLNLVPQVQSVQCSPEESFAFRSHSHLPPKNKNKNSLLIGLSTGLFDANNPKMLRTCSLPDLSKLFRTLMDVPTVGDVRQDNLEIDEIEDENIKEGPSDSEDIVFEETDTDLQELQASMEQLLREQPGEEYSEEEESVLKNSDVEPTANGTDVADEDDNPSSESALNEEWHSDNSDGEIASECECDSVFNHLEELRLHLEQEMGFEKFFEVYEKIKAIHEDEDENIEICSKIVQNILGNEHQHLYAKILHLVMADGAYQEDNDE

COCC(=O)NC/C=C/c1ccc2ncnc(Nc3ccc(Oc4ccc(C)nc4)c(C)c3)c2c1 [CP-724714]
% of control [1]: 23%

C=CC(=O)Nc1cc(-n2c(=O)ccc3cnc4ccc(-c5ccc(NS(C)(=O)=O)cc5)cc4c32)ccc1C
% of control ([2]; at 1 µM): 79%
% of control ([2]; at 10 µM): 100%

Cc1cc([C@@H](C)Nc2ccccc2C(=O)O)c2nc(N3CCOCC3)cc(=O)n2c1 [AZD-6482]
% of control [3]: 53%

CC[C@@H]1[C@H](F)C(=O)N[C@@H]1COc1nccc2cc(C(N)=O)c(OC)cc12 [ZIMLOVISERTIB]
% of inhibition (Aurora kinase B; at 0.01 µM): 9.7%
% of inhibition (Aurora kinase B; at 0.04 µM): 3.4%
% of inhibition (Aurora kinase B; at 0.2 µM): 11.1%
% of inhibition (Aurora kinase B; at 1 µM): 32.2%
% of inhibition (Aurora kinase B; at 5 µM): 63.1%
% of inhibition [4]: 10.2%
